From patent publication US8163767B2, “Heterocyclic Janus Kinase 3 inhibitors” (Astellas Pharma Inc., priority 2005, dated 2012)
Where a name gives a salt, the structure may show the parent alone.

Molecular target: T1, human JAK3 (Homo sapiens, UniProt P52333)
T1 construct: His (N); purchased Carna Bioscience Inc. (Kobe, Japan); host or cells: baculovirus expression system
Test: Determination of Janus Kinase 3 (JAK3) inhibitory activity
Format: biochemical
Details: JAK3 inhibitory activity
Procedure: Test 1: Determination of Janus Kinase 3 (JAK3) Inhibitory Activity
The assay for JAK3 activity was performed basically according to the method as proposed by Okimoto et al, as follows.
Purified kinase domain (KD) of human JAK3 was purchased from Carna Bioscience Inc. (Kobe, Japan). 796-1124 (end) amino acids of human JAK3 [accession number #NM_000215] was expressed as N-terminal His-tagged protein (41 kDa) using the baculovirus expression system and purified by using Ni-NTA affinity chromatography.
Biotin-Lyn-Substrate-peptide and ATP were used as substrates. Assay buffer consisted of 15 mM Tris-HCl pH7.5, 0.01% Tween 20 and 2 mM DTT. For the standard assay, 20 μL of substrate solution (Assay buffer containing 627 nM Biotin-Lyn-Substrate-2, 20 μM ATP and 25 mM MgCl2), 10 μL of assay buffer containing test compound and 20 μL of enzyme solution were added to the plate and mixed well.
After 1 hour incubation at ambient temperature, the plate was washed 4 times with wash buffer (50 mM Tris-HCl pH 7.5, 150 mM NaCl, 0.02% Tween 20), and then blocking buffer (wash buffer containing 0.1% Bovine serum albumin) was added to the plate. After 30 minutes incubation at ambient temperature, blocking buffer was removed and HRP-PY-20 solution (HRP-PY-20 500 times diluted with blocking buffer) was added. After 30 minutes incubation at ambient temperature, the plate was washed 4 times and TMB substrate solution (Sigma) was added to the plate. After 4 minutes incubation at ambient temperature, 1 M H2SO4 was added to the plate to stop the reaction. Enzyme activity was measured as optical density at 450 nm.

T1 sequence (P52333 796-1124): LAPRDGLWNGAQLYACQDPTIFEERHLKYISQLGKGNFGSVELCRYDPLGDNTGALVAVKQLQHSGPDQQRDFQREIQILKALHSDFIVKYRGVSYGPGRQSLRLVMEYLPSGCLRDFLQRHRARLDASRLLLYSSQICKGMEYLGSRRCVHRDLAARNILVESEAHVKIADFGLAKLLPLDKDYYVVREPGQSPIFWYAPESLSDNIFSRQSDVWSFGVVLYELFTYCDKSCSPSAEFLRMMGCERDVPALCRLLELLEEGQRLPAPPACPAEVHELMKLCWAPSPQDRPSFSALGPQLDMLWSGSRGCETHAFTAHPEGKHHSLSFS

SMILES	IC50
C[C@@H]1CCCC[C@@H]1n1c(=O)[nH]c2cnc3[nH]ccc3c21 [Example 112, 1-[(1S,2R)-2-methylcyclohexyl]-3,6-dihydroimidazo[4,5-d]pyrrolo[2,3-b]pyridin-2(1H)-one]	3 nM
CC[C@@H]1CCCC[C@@H]1n1c(=O)[nH]c2cnc3[nH]ccc3c21 [Example 118, 1-[(1S,2R)-2-Ethylcyclohexyl]-3,6-dihydroimidazo[4,5-d]pyrrolo-[2,3-b]pyridin-2(1H)-one hydrochloride]	5.1 nM
C[C@@H]1CCCC[C@@H]1Nc1c(C(N)=O)cnc2[nH]ccc12 [Example 106, 4-{[(1S,2R)-2-Methylcyclohexyl]amino}-1H-pyrrolo[2,3-b]-pyridine-5-carboxamide]	3 nM

Same assay, conditions: read-out: IR (JAK3 inhibition rate)

SMILES	inhibition at 0.01 µM
CC[C@@H]1CCCC[C@@H]1n1c(=O)[nH]c2cnc3[nH]ccc3c21 [Example 118, 1-[(1S,2R)-2-Ethylcyclohexyl]-3,6-dihydroimidazo[4,5-d]pyrrolo-[2,3-b]pyridin-2(1H)-one hydrochloride]	> 50%

Same assay, conditions: test compound 10^−5M; read-out: IR (JAK3 inhibition rate)

SMILES	inhibition at 10 µM
CNC(=O)c1cnc2[nH]ccc2c1NC1CCCCC1 [Example 187, 4-(cyclohexylamino)-N-methyl-1H-pyrrolo[2,3-b]pyridine-5-carboxamide]	> 50%
CN(c1ccnc2[nH]cc([N+](=O)[O-])c12)C1CCCCC1 [Example 210, N-cyclohexyl-N-methyl-3-nitro-1H-pyrrolo[2,3-b]pyridin-4-amine]	> 50%
CN(c1c(C(N)=O)cnc2[nH]ccc12)C1CCCCC1 [Example 4, 4-[Cyclohexyl(methyl)amino]-1H-pyrrolo[2,3-b]pyridine-5-carboxamide]	> 50%
C[C@@H]1CCCC[C@@H]1Nc1c(F)cnc2[nH]ccc12 [Example 225, 5-fluoro-N-[(1S,2R)-2-methylcyclohexyl]-1H-pyrrolo[2,3-b]pyridin-4-amine]	> 50%
CN(c1c(F)cnc2[nH]ccc12)C1CCCCC1 [Example 214, N-cyclohexyl-5-fluoro-N-methyl-1H-pyrrolo[2,3-b]pyridin-4-amine]	> 50%
C[C@@H]1CCCC[C@@H]1N(C)c1ccnc2[nH]cnc12 [Example 156, N-Methyl-N-[(1S,2R)-2-methylcyclohexyl]-3H-imidazo[4,5-b]-pyridin-7-amine]	> 50%
O=C(O)c1cnc2[nH]ccc2c1NC1CCCCC1 [Example 96, 4-(cyclohexylamino)-1H-pyrrolo[2,3-b]pyridine-5-carboxylic acid]	> 50%

Now from value to molecule:

inhibition at 10 µM	SMILES
> 50%	Fc1cnc2[nH]ccc2c1N1CCCCC1 [Example 223, 5-fluoro-4-(1-piperidinyl)-1H-pyrrolo[2,3-b]pyridine]
> 50%	C[C@@H]1CCCC[C@@H]1Nc1c(C#N)cnc2[nH]ccc12 [Example 15, 4-{[(1S,2R)-2-Methylcyclohexyl]amino}-1H-pyrrolo[2,3-b]-pyridine-5-carbonitrile]
> 50%	NC(=O)c1cnc2[nH]ccc2c1NC1CCCC1 [Example 6, 4-(Cyclopentylamino)-1H-pyrrolo[2,3-b]pyridine-5-carboxamide]
> 50%	CN(c1ccnc2[nH]cc(C#N)c12)C1CCCCC1 [Example 212, 4-[cyclohexyl(methyl)amino]-1H-pyrrolo[2,3-b]pyridine-3-carbonitrile]
> 50%	O=C(Nc1ccccc1)c1cnc2[nH]ccc2c1NC1CCCCC1 [Example 192, 4-(Cyclohexylamino)-N-phenyl-1H-pyrrolo[2,3-b]pyridine-5-carboxamide]
> 50%	CN(c1ccnc2nc[nH]c12)C1CCCCC1 [Example 209, N-cyclohexyl-N-methyl-1H-imidazo[4,5-b]pyridin-7-amine]
> 50%	C[C@@H]1CCCC[C@@H]1N(C)c1c(C#N)cnc2[nH]ccc12 [Example 5, 4-{Methyl[(1S,2R)-2-methylcyclohexyl]amino}-1H-pyrrolo[2,3-b]-pyridine-5-carbonitrile]
> 50%	CN(c1ccnc2[nH]ccc12)C1CCCCC1 [Example 211, N-cyclohexyl-N-methyl-1H-pyrrolo[2,3-b]pyridin-4-amine]
> 50%	NC(=O)c1cnc2[nH]ccc2c1N[C@@H]1CCCC[C@@H]1CO [Example 109, 4-{[(1R,2S)-2-(Hydroxymethyl)cyclohexyl]amino}-1H-pyrrolo-[2,3-b]pyridine-5-carboxamide]
> 50%	CCOC(=O)c1cnc2[nH]ccc2c1N(C)[C@H]1CCCC[C@H]1C [Example 1, ethyl 4-{methyl[(1S,2R)-2-methylcyclohexyl]amino}-1H-pyrrolo[2,3-b]pyridine-5-carboxylate]

Same assay, conditions: test compound 10^−8M; read-out: IR (JAK3 inhibition rate)

SMILES	inhibition at 0.01 µM
C[C@@H]1CCN(c2ccc(C#N)cn2)C[C@@H]1n1c(=O)[nH]c2cnc3[nH]ccc3c21 [Example 240, 6-[(3R,4R)-4-Methyl-3-(2-oxo-3,6-dihydroimidazo[4,5-d]pyrrolo[2,3-b]pyridin-1(2H)-yl)-1-piperidinyl]nicotinonitrile]	> 50%
N#Cc1ccc(N2CCC(Nc3c(C(N)=O)cnc4[nH]cnc34)CC2)nc1 [Example 322, 7-{[1-(5-cyano-2-pyridinyl)-4-piperidinyl]amino}-3H-imidazo[4,5-b]pyridine-6-carboxamide]	> 50%
C[C@@H]1CCCC[C@@H]1Nc1c(C(N)=O)cnc2[nH]ccc12 [Example 106, 4-{[(1S,2R)-2-Methylcyclohexyl]amino}-1H-pyrrolo[2,3-b]-pyridine-5-carboxamide]	> 50%
C[C@@H]1CCN(C(=O)N2CCC(F)(F)C2)C[C@@H]1n1c(=O)[nH]c2cnc3[nH]ccc3c21 (relative stereo) [Example 274, rel-1-{(3R,4R)-1-[(3,3-difluoropyrrolidin-1-yl)carbonyl]-4-methylpiperidin-3-yl}-3,6-dihydroimidazo[4,5-d]pyrrolo[2,3-b]pyridin-2(1H)-one]	> 50%
C[C@@H]1CCN(C(=O)c2ccc(Cl)s2)C[C@@H]1n1c(=O)[nH]c2cnc3[nH]ccc3c21 (relative stereo) [Example 170, rel-1-{(3R,4R)-1-[(5-Chloro-2-thienyl)carbonyl]-4-methyl-3-piperidinyl}-3,6-dihydroimidazo[4,5-d]pyrrolo[2,3-b]pyridin-2(1H)-one]	> 50%
CC1CCN(c2ncc(C#N)s2)CC1n1c(=O)[nH]c2cnc3[nH]ccc3c21 (stereo not shown) [Example 242, 2-[4-Methyl-3-(2-oxo-3,6-dihydroimidazo[4,5-d]pyrrolo[2,3-b]-pyridin-1(2H)-yl)-1-piperidinyl]-thiazole-5-carbonitrile]	> 50%
C[C@@H]1CCN(c2ccc(C#N)cn2)C[C@@H]1n1c(=O)[nH]c2cnc3[nH]ccc3c21 (relative stereo) [Example 323, rel-6-[(3R,4R)-4-Methyl-3-(2-oxo-3,6-dihydroimidazo[4,5-d]-pyrrolo[2,3-b]pyridin-1(2H)-yl)piperidin-1-yl]nicotinonitrile]	> 50%
C[C@@H]1CCCC[C@@H]1n1c(=O)[nH]c2cnc3[nH]cc(Br)c3c21 [Example 324, 8-bromo-1-[(1S,2R)-2-methylcyclohexyl]-3,6-dihydroimidazo[4,5-d]pyrrolo[2,3-b]pyridin-2(1H)-one]	> 50%

Other lines, results leading:

inhibition at 0.01 µM	SMILES
> 50%	C[C@@H]1CCCC[C@@H]1n1c(=O)[nH]c2cnc3[nH]ccc3c21 [Example 112, 1-[(1S,2R)-2-methylcyclohexyl]-3,6-dihydroimidazo[4,5-d]pyrrolo[2,3-b]pyridin-2(1H)-one]
> 50%	CC1CCN(C(=O)C2(C#N)CC2)CC1n1c(=O)[nH]c2cnc3[nH]ccc3c21 (stereo not shown) [Example 175, 1-{[4-Methyl-3-(2-oxo-3,6-dihydroimidazo[4,5-d]pyrrolo[2,3-b]-pyridin-1(2H)-yl)-1-piperidinyl]carbonyl}cyclopropane-carbonitrile]
> 50%	CC1CCN(c2ccc(C#N)nn2)CC1n1c(=O)[nH]c2cnc3[nH]ccc3c21 (stereo not shown) [Example 244, 6-[4-Methyl-3-(2-oxo-3,6-dihydroimidazo[4,5-d]pyrrolo[2,3-b]-pyridin-1(2H)-yl)-1-piperidinyl]-3-pyridazinecarbonitrile]
> 50%	CC1CCN(C(=O)N2CC(C#N)C2)CC1n1c(=O)[nH]c2cnc3[nH]ccc3c21 (stereo not shown) [Example 280, 1-{[4-Methyl-3-(2-oxo-3,6-dihydroimidazo[4,5-d]pyrrolo[2,3-b]-pyridin-1(2H)-yl)-1-piperidinyl]carbonyl}-3-azetidinecarbonitrile]
> 50%	CC(C)[C@@H](C)Nc1c(C(N)=O)cnc2[nH]ccc12 [Example 18, 4-{[(1R)-1,2-Dimethylpropyl]amino}-1H-pyrrolo[2,3-b]pyridine-5-carboxamide]
> 50%	CC1CCN(C(=O)N(C)CC#N)CC1n1c(=O)[nH]c2cnc3[nH]ccc3c21 (stereo not shown) [Example 284, N-(Cyanomethyl)-N,4-dimethyl-3-(2-oxo-3,6-dihydroimidazo-[4,5-d]pyrrolo[2,3-b]pyridin-1(2H)-yl)-1-piperidinecarboxamide]
> 50%	CC1CCN(C(=O)N(C)C)CC1n1c(=O)[nH]c2cnc3[nH]ccc3c21 (stereo not shown) [Example 275, N,N,4-Trimethyl-3-(2-oxo-3,6-dihydroimidazo[4,5-d]pyrrolo-[2,3-b]pyridin-1(2H)-yl)-1-piperidine carboxamide]
> 50%	C[C@@H]1CCN(C(=O)CC#N)C[C@@H]1n1c(=O)[nH]c2cnc3[nH]ccc3c21 (relative stereo) [Example 189, rel-3-[(3R,4R)-4-Methyl-3-(2-oxo-3,6-dihydroimidazo[4,5-d]pyrrolo-[2,3-b]pyridin-1(2H)-yl)-1-piperidinyl]-3-oxopropanenitrile]
